Read-outs that look alike come from different tables or passages of the source.
How the values were obtained:
mushroom tyrosinase [1] = assay: Tyrosinase inhibition assay (diphenolase activity, L-DOPA as substrate); type: biochemical; conditions: for tyrosinase inhibitory effect (in words): diphenolase activity; for tyrosinase inhibitory effect (in words) / % inhibition (at 0.8 mM) / IC50: substrate L-DOPA; for % inhibition (at 0.8 mM) / IC50: mushroom tyrosinase; for % inhibition (at 0.8 mM): compound at 0.8 mM
Experimental: Tyrosinase activity assays were performed with L-DOPA as substrate, as previously described with slight modifications. The pre-incubation with enzyme consisted of a 1/15 M phosphoric acid buffer solution (pH 6.8, 1.8 mL), an aqueous solution of mushroom tyrosinase (1000 U/mL, Sigma Chemical Co., 0.1 mL) and DMSO (0.1 mL) with or without an added sample. The mixture was pre-incubated at 25°C for 10 minutes. Then, a 1.5 mM L-DOPA solution (1 mL) was added and the reaction was monitored at 475 nm for 5 min. The detected absorbance increases accompanying the oxidation of the substrate (L-DOPA). The final concentration of dopaquinone was measured using the molar absorption coefficient of 3,700 M^-1 cm^-1 [31]. One unit of enzymatic activity was defined as the amount of enzyme transforming 1 μmole of L-DOPA per minute. The percentage of inhibition of tyrosinase activity was calculated as inhibition (%) = (A-B)/A×100, where A represents the difference in the absorbance of control sample between an incubation time of 0.5 and 1.0 min, and B represents the difference in absorbance of the test sample between an incubation time of 0.5 and 1.0 min. The activity of mushroom tyrosinase was determinate by spectrophotometric techniques (Varian Cary 50). DMSO inhibitory activity, in the same experimental conditions, was evaluated as 10.7%.

mushroom tyrosinase [2] = conditions: cited from earlier work

Compound	tyrosinase inhibitory effect (in words) (mushroom tyrosinase [1])	% inhibition (at 0.8 mM) (mushroom tyrosinase [1])	IC50 (mushroom tyrosinase [1])	further results
O=c1oc2cc(O)ccc2cc1-c1ccccc1 [Compound 1]	did not inhibit any tyrosinase activity	0%	–	–
O=c1oc2ccccc2cc1-c1ccc(O)cc1 [Compound 2]	no demonstrable inhibitory effects	0%	–	–
O=c1oc2cc(O)ccc2cc1-c1ccc(O)cc1 [Compound 3]	no demonstrable inhibitory effects	9.6%	–	–
O=c1oc2ccc(O)cc2cc1-c1ccc(O)cc1 [Compound 4, 6-hydroxy-3-(4’-hydroxyphenyl)coumarin]	–	26.7%	1560 µM	–
O=c1oc2ccc(O)cc2cc1-c1cc(O)cc(O)c1 [Compound 5]	–	0%	–	–
O=c1oc2cc(O)ccc2cc1-c1cc(O)cc(O)c1 [Compound 6]	–	19.3%	3680 µM	–
O=c1oc2c(O)cc(O)cc2cc1-c1cc(O)cc(O)c1 [Compound 7]	–	0%	–	–
O=c1oc2c(O)cc(O)cc2cc1-c1cc(O)c(O)c(O)c1 [Compound 8, 3-(3’,4’,5’-trihydroxyphenyl)-6,8-dihydroxycoumarin]	–	68.3%	270 µM	type of tyrosinase inhibition (Dixon plot) (mushroom tyrosinase [1]; with respect to L-DOPA as substrate at 0.5, 0.25 and 0.1 mM): non-competitive
O=c1ccc2ccc(O)cc2o1 [Umbelliferone]	–	–	–	IC50 (mushroom tyrosinase [2]; mushroom tyrosinase, reference compound, ref [20]): 420 µM
O=c1cc(-c2cc(O)c(O)c(O)c2)oc2cc(O)cc(O)c12 [pentahydroxyflavone, 3’,4’,5,5’,7-pentahydroxyflavone]	–	–	–	type of tyrosinase inhibition (mushroom tyrosinase [2]; previously reported, ref [29]): competitive inhibitor

Reference: publication PMC6255045, “Tyrosinase Inhibitor Activity of Coumarin-Resveratrol Hybrids” (Molecules, 2009)
